In patent US20100317046A1, “Non-Endogenous, Constitutively Activated Versions of Human G Protein Coupled Receptor: FSHR” (priority 2002, published 2010):
Changes are numbered by the printed parent chain.

What was measured:
[1] = target: T1, non-endogenous FSHR ("L460R") (Homo sapiens, UniProt P23945, E197A/L198V/L460R/N112T); assay: Alpha Screen cAMP accumulation, non-endogenous constitutively activated FSHR (L460R); format: cell-based; details: L460R versus WT, FIG. 3
T1 construct: expressed in transfected cells
T1 sequence (P23945 18-695 N112T/E197A/L198V/L460R): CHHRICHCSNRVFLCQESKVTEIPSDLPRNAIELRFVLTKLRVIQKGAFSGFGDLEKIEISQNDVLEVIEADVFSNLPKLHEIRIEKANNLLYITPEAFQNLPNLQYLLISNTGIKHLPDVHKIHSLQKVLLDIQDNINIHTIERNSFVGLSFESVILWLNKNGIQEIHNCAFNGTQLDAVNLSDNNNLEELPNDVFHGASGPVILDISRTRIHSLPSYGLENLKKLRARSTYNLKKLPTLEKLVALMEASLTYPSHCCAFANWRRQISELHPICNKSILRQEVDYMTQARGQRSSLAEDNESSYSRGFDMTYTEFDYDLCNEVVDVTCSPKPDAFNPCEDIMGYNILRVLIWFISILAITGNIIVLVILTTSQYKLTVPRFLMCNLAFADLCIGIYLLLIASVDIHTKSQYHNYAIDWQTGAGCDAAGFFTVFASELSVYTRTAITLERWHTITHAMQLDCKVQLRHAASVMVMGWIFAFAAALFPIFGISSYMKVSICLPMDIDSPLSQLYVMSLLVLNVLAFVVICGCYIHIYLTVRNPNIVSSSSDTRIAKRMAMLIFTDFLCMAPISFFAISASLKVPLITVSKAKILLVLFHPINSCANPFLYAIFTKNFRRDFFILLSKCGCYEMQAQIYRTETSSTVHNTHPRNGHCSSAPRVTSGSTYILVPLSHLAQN
Method: (§1) Approximately 12×10^6 293 cells are plated on a 15 cm tissue culture plate. Grown in DME High Glucose Medium containing ten percent fetal bovine serum and one percent sodium pyruvate, L-glutamine, and anti-biotics. Twenty-four hours following plating of 293 cells (or to ˜80% confluency), the cells are transfected using 12 μg of DNA. The 12 μg of DNA is combined with 60 μl of lipofectamine and 2 mL of DME High Glucose Medium without serum. The medium is aspirated from the plates and the cells are washed once with medium without serum. The DNA, lipofectamine, and medium mixture are added to the plate along with 10 mL of medium without serum. Following incubation at 37 degrees Celsius for four to five hours, the medium is aspirated and 25 ml of medium containing serum is added. Twenty-four hours following transfection, the medium is aspirated again, and fresh medium with serum is added. Forty-eight hours following transfection, the medium is aspirated and medium with serum is added containing geneticin (G418 drug) at a final concentration of 500 μg/mL. The transfected cells will undergo selection for positively transfected cells containing the G418 resistant gene. […]
(§2) The media from Example 3(b) above was aspirated and rinsed 1× with PBS (5-10 ml/flask). […] Following incubation, the wells were read on Alpha Quest and measured for light units. […]

[2] = target: T2, endogenous FSHR ("WT") (Homo sapiens, UniProt P23945, E197A/L198V/N112T); assay: Alpha Screen cAMP accumulation, endogenous FSHR (WT); format: cell-based; details: 293 cells expressing WT FSHR, FIG. 3
T2 construct: The 2.1 kb PCR fragment was then cloned into EcoRV-EcoRI site of CMVp expression vector; expressed in transfected cells
T2 sequence (P23945 18-695 N112T/E197A/L198V): T1 sequence (P23945 18-695 N112T/E197A/L198V/L460R) with R443L
Method: as §1, §2

efficacy for L460R version of FSHR compared with the WT receptor [1]: better efficacy
EC50 [2]: ~3 nM
Compound: CCCCCc1ccc(C(=O)N2CCCCC2C(=O)Nc2ccc3c(c2)c2ccccc2n3CC)c(=O)o1 (centres unmarked) [Compound A, 1-[(2-oxo-6-pentyl-2H-pyran)-3-carbonyl]-piperidine-2-carboxylic acid-3-(9-ethylcarbazolyl) amide]
